Here are results for 103 molecules from PubChem BioAssay AID1996.

Values after ≈ are worked out from the molar mass of the structure shown.

The conditions of this data set: buffer; pH 7.4; 200.0 µM.
With `O=C(NC1CCS(=O)(=O)C1)C1C2CC3CC(C2)CC1C3` (stereo not drawn), the kinetic solubility – broadly, solubility judged after dilution from a stock solution rather than from solid – was greater than 44.6 µg/mL.
The same measure for `O=C1NC(=Nc2ccccc2)S/C1=C\c1cccnc1`: 2 µg/mL (≈ 7.11 µM); for `O=C(NCC1CCN(S(=O)(=O)c2ccccc2)CC1)Nc1ccccc1`: 3.6 µg/mL (≈ 9.64 µM).
The figure for `Cc1c(NCc2cccnc2)cccc1C(=O)O` is greater than 36.3 µg/mL; for `O=C(CN1C(=O)COc2ccc(Cl)cc21)Nc1nccs1` it is 1.4 µg/mL (≈ 4.32 µM); for `c1ccc(CN2CCC3(CC2)Nc2ccccc2S3)cc1` it is 27.9 µg/mL (≈ 94.1 µM).
Molecule `CCOc1ccc(-c2nonc2NC(=O)c2ccco2)cc1` displayed a kinetic solubility of 12.1 µg/mL (≈ 40.4 µM).
The figure for `O=C(c1ccc2nc[nH]c2c1)N1CCc2ccccc2C1` is greater than 41.6 µg/mL; for `CCOC(=O)c1cccc(NC(=S)NCc2ccc(C)cc2)c1` it is 0.4 µg/mL (≈ 1.22 µM).
The same measure for `Cc1cccc(OCC(O)Cn2ccnc2C)c1` (stereo not drawn): 33.2 µg/mL (≈ 135 µM).
The figure for `CCN(CC)CC.COc1ccc(-n2c(=S)[nH]c3c(sc(=S)n3-c3ccccc3)c2=O)c(OC)c1` is greater than 64.4 µg/mL.
On to `N#Cc1ccc(OCC(=O)N2CCCC2=O)cc1`, for which the kinetic solubility was greater than 36.6 µg/mL.
The figure for `Cn1ncc([N+](=O)[O-])c1C(=O)N1CCCCCC1` is greater than 37.8 µg/mL; for `Cc1cc2nc3c(=O)[nH]c(=S)[nH]c3nc2cc1NC(=O)C(F)(F)F` it is 26.8 µg/mL (≈ 75.4 µM); for `CC(C)CCN(CCC(C)C)C(=O)Cc1c(O)c2ccccc2[nH]c1=O` it is 2.7 µg/mL (≈ 7.53 µM).
On to `Cc1cc(=O)oc2cc(OC(C)C(=O)NC3CCCC3)ccc12` (stereo not drawn), for which the solubility (kinetic) stood at 44.6 µg/mL (≈ 141 µM).
The same measure for `CN(C)CCNC(=O)COc1cccc2c1OC(C)(C)C2`: greater than 43.9 µg/mL; for `Cc1ccc(Cn2cccc(NS(C)(=O)=O)c2=O)cc1`: greater than 43.9 µg/mL; for `O=C(NCc1ccc2c(c1)OCO2)c1cc([N+](=O)[O-])ccc1N1CCOCC1`: greater than 57.8 µg/mL.
The figure for `CN(CC(=O)Nc1cccc(F)c1)C(=O)CC1CCCC1` is greater than 43.9 µg/mL; for `CNC(=O)c1cc(S(=O)(=O)Nc2ccc3c(c2)OCCO3)ccc1C` it is greater than 54.4 µg/mL.
In the case of `Cc1cnc(NC(=O)c2ccncc2)s1`, the kinetic solubility came out at 30.2 µg/mL (≈ 138 µM).
The figure for `OC(CNCC1COc2ccccc2O1)COc1ccccc1F` (stereo not drawn) is greater than 50 µg/mL; for `COc1ccccc1C(=O)NS(=O)(=O)c1ccc(C)cc1` it is greater than 45.8 µg/mL; for `COc1ccc([C@@H](O)[C@@H](N)c2ccccc2)cc1.Cl` it is 41.7 µg/mL.
The same measure for `CCn1c(=O)c2ccccc2n(Cc2cccc([N+](=O)[O-])c2)c1=O`: 0.9 µg/mL (≈ 2.77 µM).
The same measure for `CC1Cc2ccccc2N1C(=O)/C=C/c1cccc(F)c1` (stereo not drawn): 6.2 µg/mL (≈ 22 µM); for `COC(=O)CN1C(=O)N/C(=C/c2cc(OC)c(OC)cc2C)C1=O`: 46.9 µg/mL (≈ 140 µM); for `Cc1cc(C(=O)COc2ccc([N+](=O)[O-])cc2)c(C)n1C1CC1`: 2.2 µg/mL (≈ 7 µM).
`Cc1ccccc1-n1ccnc1SCC(=O)NC1CCCC1`: the solubility (kinetic) is greater than 47.3 µg/mL.
The same measure for `O=C(Nc1ccccc1Cl)c1sccc1-c1ccccc1`: less than 0.7 µg/mL; for `O=C(O)CCCC(=O)N1CCN(c2ncccn2)CC1`: greater than 41.7 µg/mL.
The figure for `CCOc1ccc(N2C(=O)C(Cl)=C(N3CCOCC3)C2=O)cc1` is greater than 50.5 µg/mL; for `Cc1ccc2oc(C(=O)NC3CCS(=O)(=O)C3)c(C)c2c1` (stereo not drawn) it is 27.5 µg/mL (≈ 89.5 µM); for `CCOC(=O)N1CCN(CCC(=O)Nc2ccccc2)CC1` it is 32.2 µg/mL (≈ 105 µM).
Consider `CCCn1c(N)c(C(=O)CN2CCN(S(=O)(=O)c3cccc(Cl)c3)CC2)c(=O)[nH]c1=O`, for which the solubility (kinetic) was greater than 70.5 µg/mL.
As to `COc1ccccc1OCC(=O)NC1CC(C)(C)NC(C)(C)C1`, the solubility (kinetic) is 41.7 µg/mL (≈ 130 µM).
The figure for `Nc1ncnc2c1ncn2[C@@H]1O[C@H](CO)[C@@H](O)[C@@H]1O` is greater than 40.1 µg/mL.
The same measure for `O=C(O)CCn1c(-c2ccccc2)cc2ccccc21`: 35.7 µg/mL (≈ 135 µM); for `O=C1CSC(c2ccccc2[N+](=O)[O-])N1c1cccc(F)c1` (stereo not drawn): 12.9 µg/mL (≈ 40.5 µM).
The same measure for `COc1ccc(CNC(=O)COC(=O)c2sccc2C)cc1OC`: 12.4 µg/mL (≈ 35.5 µM); for `Cc1ccc(S(=O)(=O)N2CCN(C(=O)COC(=O)COc3cccc(C(F)(F)F)c3)CC2)c(C)c1`: 8.7 µg/mL (≈ 16.9 µM).
Regarding `NC(=O)NC(Cc1ccccc1)C(=O)NNC(=O)COc1ccccc1Cl` (stereo not drawn), the solubility (kinetic) was greater than 58.6 µg/mL.
The same measure for `Cc1ccc(S(=O)(=O)NC2=NCN(C(C)C)CN2)cc1`: greater than 44.5 µg/mL.
The same measure for `CN1CCN(c2ccc(CNS(=O)(=O)c3cccc(F)c3)cc2)CC1`: 6.7 µg/mL (≈ 18.4 µM).
The same measure for `CC1(C(=O)Nc2ccc3c(c2)OCO3)CC1(Cl)Cl` (stereo not drawn): greater than 43.2 µg/mL.
In the case of `O=C1CN(C(=O)COC(=O)c2ccccc2O)c2ccccc2N1`, the kinetic solubility came to 3.5 µg/mL (≈ 10.7 µM).
The figure for `CN(CC(=O)NC(=O)NC1CCCCC1)Cc1ccccc1` is greater than 45.5 µg/mL; for `COc1ccc(NC(=O)Cc2ccc(Cl)cc2Cl)cn1` it is 33.8 µg/mL (≈ 109 µM).
The figure for `CC(NC(=O)Nc1ccc(Cl)cc1)c1ccc2c(c1)OCO2` (stereo not drawn) is 2.8 µg/mL (≈ 8.78 µM); for `Cn1c(=O)c2c(=O)cc(N)[nH]c2n(C)c1=O` it is 12.1 µg/mL (≈ 54.5 µM).
The figure for `O=C(COC(=O)c1cc(=O)[nH]c2ccccc12)NCCc1ccccc1` is 21.1 µg/mL (≈ 60.2 µM).
As for `Cc1ccc(-c2csc(NC(=O)C3CC(=O)N(Cc4ccco4)C3)n2)cc1` (stereo not drawn), the solubility (kinetic) was 12.1 µg/mL (≈ 31.7 µM).
`COc1ccc(C(=O)OCC(=O)N2CCc3ccccc3C2)cc1OC` yielded a solubility (kinetic) greater than 53.3 µg/mL.
The figure for `O=C(Nc1cccc(C(F)(F)F)c1)c1sc(Cl)nc1C(F)(F)F` is 36.3 µg/mL (≈ 96.9 µM).
The same measure for `CCOC(=O)CC(c1ccc(N)cc1)n1c(C)ccc1C` (stereo not drawn): 20.8 µg/mL (≈ 72.6 µM); for `CCOC(=O)C1=C(C)NC(C)=C(C(=O)OCC)C1C(=O)OCC(=O)NCc1ccco1`: greater than 65.2 µg/mL.
The same measure for `Nc1ncc2[nH]cnc2n1`: greater than 20.3 µg/mL; for `CCc1sc(NC(=O)C(C)C)nc1-c1ccccc1`: 15.6 µg/mL (≈ 56.9 µM); for `Cc1ccc(-c2ccc(/C=N/O)o2)cc1[N+](=O)[O-]`: 3.4 µg/mL (≈ 13.8 µM).
Consider `O=C(Cc1cccc2ccccc12)NCCOc1ccccc1F`, for which the kinetic solubility was 3.7 µg/mL (≈ 11.4 µM).
In turn, `O=C(COc1ccccc1)N1CCN(c2ncccn2)CC1` came in with a solubility (kinetic) greater than 44.8 µg/mL.
The same measure for `O.O=C([O-])c1ccn2c(C(=O)c3ccccc3)c(-c3ccccc3)cc2c1`: greater than 52.4 µg/mL; for `CC1CCC2C(C1)Nc1c(C(=O)O)cccc1C2(C)C` (stereo not drawn): greater than 41 µg/mL.
The figure for `Cc1cccc(NC(=O)CSc2cccc[n+]2[O-])c1C` is 39.7 µg/mL (≈ 138 µM); for `O=C(CCCc1ccccc1)NCc1ccc2c(c1)OCO2` it is greater than 44.6 µg/mL; for `COc1ccc([N+](=O)[O-])cc1NC(=O)Nc1ccc(OC)c(OC)c1` it is 0.3 µg/mL (≈ 0.864 µM).
`O=C(CSc1nccn1-c1ccccc1)NO`: the solubility (kinetic) amounted to 32.1 µg/mL (≈ 129 µM).
Molecule `CCn1c(=O)c2c(nc(SCC(=O)NC3CCCC3)n2C)n(C)c1=O` came in with a kinetic solubility greater than 54.8 µg/mL.
The figure for `COc1ccc(Cl)cc1N1C(=O)CC(N2CCN(S(=O)(=O)c3ccccc3F)CC2)C1=O` (stereo not drawn) is 38.3 µg/mL (≈ 79.5 µM); for `O=C(NC(=S)Nc1ncccn1)c1ccccc1Br` it is 23.5 µg/mL (≈ 69.7 µM).
The figure for `CCOC(=O)c1sc(NC(=O)c2c(CC)noc2C)nc1C` is greater than 48.5 µg/mL.
`O=C(NC(=S)Nc1cccnc1Cl)c1ccc(F)cc1` returned a solubility (kinetic) of 6.4 µg/mL (≈ 20.7 µM).
Consider `COc1ccc(OCC(O)CNC2CCCC2)cc1.Cl` (stereo not drawn), for which the solubility (kinetic) came to 42.6 µg/mL.
The figure for `Cc1sc2c3ccsc3ccc2[n+]1C.[I-]` is 36.3 µg/mL; for `Cl.c1ccc(C2CNCCc3ccccc32)cc1` (stereo not drawn) it is greater than 39 µg/mL.
The same measure for `CC(=O)CC(C)(C)Nc1nc2cc([N+](=O)[O-])ccc2o1`: 1.1 µg/mL (≈ 3.97 µM); for `COc1ccc(/C=C/C(=O)OCC(=O)NCCCc2ccccc2)cc1OC`: 20 µg/mL (≈ 52.2 µM).
Regarding `Cc1ccc(Cl)c(N/C=C/C(=O)c2ccccc2)c1`, the solubility (kinetic) was less than 0.6 µg/mL.
The figure for `CN(C)CCNc1ncnc2sc(-c3ccccc3)cc12` is 39.7 µg/mL (≈ 133 µM); for `O=C(Cc1ccc(Cl)cc1Cl)OCC(=O)N1CCCCC1` it is greater than 49.5 µg/mL; for `O=C1CS/C(=N\NC(=O)c2ccccc2)N1` it is greater than 35.3 µg/mL.
For the molecule `Cc1ccc2oc(C(=O)N3CCN(C)C[C@@H]3C(C)C)c(C)c2c1`, the solubility (kinetic) stood at 34.3 µg/mL (≈ 109 µM).
The figure for `CCC(C)[C@H](NC(=O)N1CCCCCC1)C(=O)O` (stereo partly drawn) is greater than 38.5 µg/mL; for `CC1(CO)COC2(OC1)C(=O)Nc1ccccc12` (stereo not drawn) it is greater than 37.4 µg/mL; for `O=C(Cc1cccs1)Nc1ccc(F)cc1F` it is 30 µg/mL (≈ 118 µM).
The figure for `Cc1ccccc1CC(=O)N1CC(C)OC(C)C1` (stereo not drawn) is greater than 37.1 µg/mL; for `COc1ccc2oc(C(=O)OCC(=O)NC3CC3)c(C)c2c1` it is 10.3 µg/mL (≈ 34 µM).
The figure for `COc1cc2c(cc1OC)C(C(=O)NC(C)C)C1CCCCN1C2=O` (stereo not drawn) is greater than 52 µg/mL; for `O=C(CSc1cccc[n+]1[O-])N1CCc2ccccc21` it is greater than 43 µg/mL.
`O=C(CN1CCCCC1)NC(=O)NC1CCCCC1`: the solubility (kinetic) was greater than 40.1 µg/mL.
`CCOc1ccc(Br)cc1S(=O)(=O)Nc1cccnc1` came in with a kinetic solubility of 1.4 µg/mL (≈ 3.92 µM).
The figure for `Cc1c(Cl)cccc1NC(=O)CC1Oc2ccccc2NC1=O` (stereo not drawn) is 5.7 µg/mL (≈ 17.2 µM); for `Cc1ccc2oc(=O)n(CCOc3ccccc3C)c2c1` it is less than 0.6 µg/mL; for `Cn1ncc([N+](=O)[O-])c1C(=O)NC1CCCCC1` it is greater than 37.8 µg/mL.
The figure for `COc1ccc(C2C(CN3CCOCC3)C(=O)N2c2ccccc2)cc1` (stereo not drawn) is greater than 52.9 µg/mL; for `Cc1ccc(SCC(=O)N2CCN(c3ccccn3)CC2)cc1` it is 43.8 µg/mL (≈ 134 µM).
The figure for `O=C(C1CCC1)N1CCN(c2cccc(C(F)(F)F)c2)CC1` is 38.8 µg/mL (≈ 124 µM); for `Cc1ccc(NS(=O)(=O)c2ccc3c(c2)CCC(=O)N3)cc1` it is greater than 47.5 µg/mL.
Turning to `CCC(C)NC(=O)C1c2ccccc2Oc2ccccc21` (stereo not drawn), the kinetic solubility was determined as 1.9 µg/mL (≈ 6.75 µM).
The figure for `Cc1ccc(C)c(-c2csc(Nc3ncccn3)n2)c1` is 0.2 µg/mL (≈ 0.708 µM).
The figure for `O=[N+]([O-])c1ccc(Cl)cc1NCc1cccnc1` is greater than 39.6 µg/mL.
The same measure for `O=c1c2cc3c(nc2[nH]c(=S)n1-c1ccccc1)CCCC3`: 0.5 µg/mL (≈ 1.62 µM).
